From patent US20250235496A1, “USE OF BELLIDIFOLIN (BEL) AND/OR BEL-CONTAINING EXTRACT IN PREPARATION OF ANTIDEPRESSANT PRODUCT” (priority 2024, published 2025)
Counter-ions that a name gives are not always drawn.

How the values were obtained:
HT22 cells = test: CORT-induced HT22 cell viability, BEL; format: cell-based; conditions: Mus musculus, HT-22, 250 μM CORT, 24 h, model = 100.00
mice = test: Acute toxicity study of BEL in mice; format: in vivo
[1] = system: CORT-induced Kunming mouse model; test: In vivo antidepressant study of BEL: body weight, diet, water intake; set-up: species or system Kunming (KM) mice; conditions: 21 d, CORT-induced mice
Experimental: After one week of adaptive feeding of experimental mice, 10 mice were randomly selected from 150 mice as a normal group, and the mice in the normal group were not treated in any way. […] The dosing volume was changed once a week according to the weight of the mice, and the mice were subcutaneously administered in the groin of the hind limb between 9:00 and 11:00 am every day. During the modeling, the weight, diet, and water intake of the mice were recorded, and the relevant data were counted once a week until the modeling was completed. During the modeling, the mice were subjected to behavioral analysis. 4 behavioral test designs were designed: FST, TST, SPT, and NSFT. […] There were 5 mice/cage in the normal group and 5 mice/cage in the model group. […] Behavioral experiments were conducted once a week, and the serum 5-HT and CORT levels of mice were recorded. The results were shown in Tables 3 to 5 and FIG. 12A to FIG. 14B.

[2] = system: CORT-induced Kunming mouse model; test: In vivo antidepressant study of BEL: behavioral tests (FST, TST, SPT, NSFT); set-up: species or system Kunming (KM) mice; conditions: CORT-induced mice
5-HT = test: Serum 5-HT level, BEL study; format: in vivo; conditions: CORT-induced mice
Experimental: (§1) Behavioral experiments were conducted once a week, and the serum 5-HT and CORT levels of mice were recorded.

CORT = test: Serum CORT level, BEL study; format: in vivo; conditions: CORT-induced mice
Experimental: as §1

[3] = system: neurons in the hippocampus of mice; test: H & E staining and immunofluorescence histochemistry of hippocampus; format: in vivo; conditions: 21 d of administration, CORT-induced mice
Text: [0170](2) After 21 d of drug administration, the hippocampus of mice in each treatment group was stained with H & E, and the proliferation of neurons in the hippocampus of mice was detected by immunofluorescence histochemistry.
(§2) Compared with the normal group, the hippocampus structure of the model group mice was abnormal, the cells were wrinkled and then irregularly arranged. After administration, the hippocampus structure returned to normal and the cells were arranged regularly. […] [0172](3) After 21 d of drug administration, brain tissues of mice in each treatment group were collected for Golgi staining.

hippocampal neurons = test: Golgi staining of brain tissue: neuron dendrite length and dendritic spine density; format: in vivo, mice; conditions: 21 d; for Neuron dendrite length, Maximum / Neuron dendrite length, Mean / Neuron dendrite length, Minimum: mouse hippocampus
Text: as §2
• (4) After 21 d of drug administration, the dendritic spine density of neurons in the hippocampus of mice was counted. […] The effect intensity was as follows: 10 mg/kg BEL treatment group >20 mg/kg BEL treatment group BEL 40 mg/kg BEL treatment group.

[4] = Mass spectrometry imaging of mouse brain; format: in vivo, mice; conditions: mass spectrometry imaging, 21 d
CREB = CREB / p-CREB protein expression in hippocampus (immunoblot); format: in vivo, mice; conditions: 21 d
Text: (§3) There was no significant difference in the expression of p-CREB protein among the groups.

5-HT1A = 5-HT1A protein expression in hippocampus (immunoblot); format: in vivo, mice; conditions: 10 and 20 mg/kg, 21 d, vs model group
Text: as §3

5-HT2A = 5-HT2A protein expression in hippocampus (immunoblot); format: in vivo, mice; conditions: 21 d, vs model group
Text: as §3

Arg1 = Arg1 protein expression in hippocampus (immunoblot); format: in vivo, mice; conditions: 10 mg/kg, 21 d, vs model group
Text: as §3

[5] = serum, 214 mg/kg gavage, 3 times within 24 h

With `COc1cc(O)c2c(=O)c3c(O)ccc(O)c3oc2c1` [BEL, bellidifolin] the viability at 0.0625 µM (HT22 cells) was 103 ± 5.03%, the viability at 0.125 µM (HT22 cells) was 107 ± 2.64% and the viability at 0.25 µM (HT22 cells) was 115 ± 3.93%. The viability at 0.5 µM (HT22 cells) was 120 ± 3.97%, the viability at 1 µM (HT22 cells) was 139 ± 5.34% and the “Observation during 14-d period” value (mice; 214 mg/kg gavage 3 times within 24 h, subsequent 14-d observation) was “did not show any abnormalities”. For the same molecule, the “Toxic side effects (weight, brain, liver, kidneys)” value (mice; 214 mg/kg gavage, 3 times within 24 h) was “no toxic side effects on mice”, the Weight (mice; 214 mg/kg gavage, 3 times within 24 h, 14 d observation) was 39.18 ± 3.94 g and the Observation after treatment (mice; 214 mg/kg gavage, 20 min after the second treatment) was “slight tremors, which disappeared after 2 min”. It also gave an ALT (mice; [5]) of 26.85 ± 6.22 U/L, an AST (mice; [5]) of 48.73 ± 4.15 U/L and a CRE (mice; [5]) of 23.20 ± 5.69 µmol/L. It also gave a Body weight ([1]; 10 mg/kg/d gavage) of 37.19 ± 3.35 g, a Diet ([1]; 10 mg/kg/d gavage) of 4.02 ± 0.03 g/day and a Water intake ([1]; 10 mg/kg/d gavage) of 4.72 ± 0.42 g/day. For the same molecule, the Body weight ([1]; 20 mg/kg/d gavage) was 37.33 ± 3.30 g, the Diet ([1]; 20 mg/kg/d gavage) was 4.48 ± 0.45 g/day and the Water intake ([1]; 20 mg/kg/d gavage) was 4.87 ± 0.99 g/day. It also gave a Body weight ([1]; 40 mg/kg/d gavage) of 36.31 ± 3.72 g, a Diet ([1]; 40 mg/kg/d gavage) of 5.14 ± 1.00 g/day and a Water intake ([1]; 40 mg/kg/d gavage) of 6.82 ± 0.45 g/day. The FST immobility time ([2]; 10 mg/kg/d gavage) was 145.00 ± 36.40 s, the “NSFT start time of eating” value ([2]; 10 mg/kg/d gavage) was 42.75 ± 31.56 s and the “SPT sugar water preference” value ([2]; 10 mg/kg/d gavage) was 13.72 ± 0.30 %. For the same molecule, the TST immobility time ([2]; 10 mg/kg/d gavage) was 27.50 ± 16.05 s, the FST immobility time ([2]; 20 mg/kg/d gavage) was 127.14 ± 36.38 s and the “NSFT start time of eating” value ([2]; 20 mg/kg/d gavage) was 57.14 ± 35.77 s. For the same molecule, the “SPT sugar water preference” value ([2]; 20 mg/kg/d gavage) was 12.41 ± 3.32%, the TST immobility time ([2]; 20 mg/kg/d gavage) was 47.22 ± 35.19 s and the FST immobility time ([2]; 40 mg/kg/d gavage) was 193.33 ± 25.98 s. The “NSFT start time of eating” value ([2]; 40 mg/kg/d gavage) was 38.78 ± 22.73 s, the “SPT sugar water preference” value ([2]; 40 mg/kg/d gavage) was 8.75 ± 0.18% and the TST immobility time ([2]; 40 mg/kg/d gavage) was 98.75 ± 66.35 s. For the same molecule, the “Serum 5-HT” value (5-HT; 10 mg/kg/d gavage) was 134.29 ± 12.34 ng/mL, the “Serum 5-HT” value (5-HT; 20 mg/kg/d gavage) was 216.11 ± 3.34 ng/mL and the “Serum 5-HT” value (5-HT; 40 mg/kg/d gavage) was 133.42 ± 30.76 ng/mL. For the same molecule, the “Serum CORT” value (CORT; 10 mg/kg/d gavage) was 107.08 ± 8.16 ng/mL, the “Serum CORT” value (CORT; 20 mg/kg/d gavage) was 111.82 ± 8.27 ng/mL and the “Serum CORT” value (CORT; 40 mg/kg/d gavage) was 93.63 ± 11.48 ng/mL. For the same molecule, the “Proliferation of neurons in the hippocampus (immunohistofluorescence)” value [3] was “could promote the proliferation of neurons in the mouse hippocampus”, the “Neuron dendrite length, Maximum” value (hippocampal neurons; 10 mg/kg/d gavage) was 1853.00 μm and the “Neuron dendrite length, Mean” value (hippocampal neurons; 10 mg/kg/d gavage) was 75.66 ± 60.55 μm. For the same molecule, the “Neuron dendrite length, Minimum” value (hippocampal neurons; 10 mg/kg/d gavage) was 5.86 μm, the “Neuron dendrite length, Maximum” value (hippocampal neurons; 20 mg/kg/d gavage) was 2297.92 μm and the “Neuron dendrite length, Mean” value (hippocampal neurons; 20 mg/kg/d gavage) was 140.64 ± 73.11 μm. For the same molecule, the “Neuron dendrite length, Minimum” value (hippocampal neurons; 20 mg/kg/d gavage) was 6.32 μm, the “Neuron dendrite length, Maximum” value (hippocampal neurons; 40 mg/kg/d gavage) was 194.06 μm and the “Neuron dendrite length, Mean” value (hippocampal neurons; 40 mg/kg/d gavage) was 51.73 ± 33.73 μm. For the same molecule, the “Neuron dendrite length, Minimum” value (hippocampal neurons; 40 mg/kg/d gavage) was 6.04 μm, the “Dendritic spine density of hippocampal neurons” value (hippocampal neurons; 10, 20 and 40 mg/kg, vs model group) was “could significantly increase the dendritic spine density” and the “Number and length of neurons in the hippocampus (Golgi staining)” value (hippocampal neurons; 10 and 20 mg/kg) was “increased the number of neurons and the length of neurons”. For the same molecule, the Distribution in brain [4] was “mainly distributed in the hypothalamus, amygdala, hippocampus, and cortex of mice”, the “CREB protein level in hippocampus” value (CREB; 10 mg/kg, reduced level in model group) was “could significantly reverse this phenomenon” and the “Phosphorylation level of CREB in hippocampus” value (CREB; 40 mg/kg, vs model group) was “significantly decreased”. For the same molecule, the “Expression of 5-HT1A protein in hippocampus” value (5-HT1A) was “could significantly promote the expression of 5-HT1A protein”, the “Expression of 5-HT2A protein in hippocampus” value (5-HT2A) was “had no effect on the expression of 5-HT2A” and the “Expression of Arg1 protein in hippocampus” value (Arg1) was “could significantly reverse the decrease in Arg1 expression”.
Work on `CNCCC(Oc1ccc(C(F)(F)F)cc1)c1ccccc1` (stereo not shown) [Flu, fluoxetine hydrochloride, reference compound] yielded a viability at 0.0625 µM (HT22 cells) of 103 ± 4.06%, a viability at 0.125 µM (HT22 cells) of 108 ± 3.95% and a viability at 0.25 µM (HT22 cells) of 111 ± 1.64%. For the same molecule, the viability at 0.5 µM (HT22 cells) was 112 ± 2.77%, the viability at 1 µM (HT22 cells) was 123 ± 8.39% and the Body weight ([1]; 20 mg/kg/d gavage) was 27.03 ± 1.74 g. The Diet ([1]; 20 mg/kg/d gavage) was 3.90 ± 0.39 g/day, the Water intake ([1]; 20 mg/kg/d gavage) was 4.00 ± 0.97 g/day and the FST immobility time ([2]; 20 mg/kg/d gavage) was 178.50 ± 36.52 s. For the same molecule, the “NSFT start time of eating” value ([2]; 20 mg/kg/d gavage) was 84.50 ± 32.69 s, the “SPT sugar water preference” value ([2]; 20 mg/kg/d gavage) was 13.28 ± 0.56 % and the TST immobility time ([2]; 20 mg/kg/d gavage) was 71.43 ± 40.80 s. The “Serum CORT” value (CORT; 20 mg/kg/d gavage) was 152.77 ± 11.25 ng/mL, the “Neuron dendrite length, Maximum” value (hippocampal neurons; 20 mg/kg/d gavage) was 180.19 μm and the “Neuron dendrite length, Mean” value (hippocampal neurons; 20 mg/kg/d gavage) was 54.65 ± 32.76 μm. The “Neuron dendrite length, Minimum” value (hippocampal neurons; 20 mg/kg/d gavage) was 6.57 μm.
For `CN(C)CCCN1c2ccccc2CCc2ccccc21` [Imi, imipramine hydrochloride, reference compound], the Body weight ([1]; 20 mg/kg/d gavage) was 34.41 ± 1.80 g, the Diet ([1]; 20 mg/kg/d gavage) was 4.38 ± 0.45 g/day and the Water intake ([1]; 20 mg/kg/d gavage) was 4.92 ± 0.40 g/day. For the same molecule, the FST immobility time ([2]; 20 mg/kg/d gavage) was 163.00 ± 38.09 s, the “NSFT start time of eating” value ([2]; 20 mg/kg/d gavage) was 65.11 ± 32.90 s and the “SPT sugar water preference” value ([2]; 20 mg/kg/d gavage) was 8.32 ± 0.12%. The TST immobility time ([2]; 20 mg/kg/d gavage) was 76.43 ± 46.52 s, the “Serum 5-HT” value (5-HT; 20 mg/kg/d gavage) was 130.24 ± 13.65 ng/mL and the “Serum CORT” value (CORT; 20 mg/kg/d gavage) was 143.19 ± 12.30 ng/mL. The “Neuron dendrite length, Maximum” value (hippocampal neurons; 20 mg/kg/d gavage) was 172.10 μm, the “Neuron dendrite length, Mean” value (hippocampal neurons; 20 mg/kg/d gavage) was 37.66 ± 25.07 μm and the “Neuron dendrite length, Minimum” value (hippocampal neurons; 20 mg/kg/d gavage) was 5.95 μm.
